# Measured values taken from patent publication EP4635500A1, “THERAPEUTIC AGENT FOR BACTERIAL INFECTION” (Sumitomo Pharma Co., Ltd., priority 2022, dated 2024).
# Like-named read-outs stand apart in the source and are kept apart here.
# Legend:
# P. aeruginosa = test: MIC, broth microdilution, CDC/FDA Antibiotic Resistance Isolate Bank (Example 7, Tables 10, 15); assay type: cell-based; conditions: Pseudomonas aeruginosa, read-out: MIC
# A. baumannii = test: MIC, broth microdilution, CDC/FDA Antibiotic Resistance Isolate Bank (Example 7, Tables 9, 13, 14); assay type: cell-based, Acinetobacter baumannii; conditions: for MIC: read-out: MIC
smiles,measurement,setting,value
"CO/N=C(\C(=O)N[C@@H]1C(=O)N2C(C(=O)[O-])=C(C[n+]3ccn4ncccc43)CS[C@H]12)c1nsc(N)n1 [Cefozopran, cefozopran]",MIC,"P. aeruginosa; P. aeruginosa KUB No. 5789, AR Bank # 444",> 64 µg/mL
same,MIC,"P. aeruginosa; P. aeruginosa KUB No. 5790, AR Bank # 445",32 µg/mL
same,MIC,"P. aeruginosa; P. aeruginosa KUB No. 5793, AR Bank # 449",> 64 µg/mL
same,MIC,"P. aeruginosa; P. aeruginosa KUB No. 5798, AR Bank # 455",32 µg/mL
same,MIC,"P. aeruginosa; P. aeruginosa KUB No. 5799, AR Bank # 456",32 µg/mL
same,MIC,"P. aeruginosa; P. aeruginosa KUB No. 5800, AR Bank # 457",> 64 µg/mL
same,MIC,"P. aeruginosa; P. aeruginosa KUB No. 5801, AR Bank # 458",64 µg/mL
same,MIC,"P. aeruginosa; P. aeruginosa KUB No. 5802, AR Bank # 459",32 µg/mL
same,MIC,"P. aeruginosa; P. aeruginosa KUB No. 5804, AR Bank # 862",32 µg/mL
same,MIC,"P. aeruginosa; P. aeruginosa KUB No. 5805, AR Bank # 863",> 64 µg/mL
same,MIC,"P. aeruginosa; P. aeruginosa KUB No. 5806, AR Bank # 864",64 µg/mL
same,MIC,"P. aeruginosa; P. aeruginosa KUB No. 5813, AR Bank # 508",> 0.064 µg/mL
same,MIC,"P. aeruginosa; P. aeruginosa KUB No. 5814, AR Bank # 509",> 0.064 µg/mL
same,MIC,"P. aeruginosa; P. aeruginosa KUB No. 5815, AR Bank # 510",0.004 µg/mL
same,MIC,"P. aeruginosa; P. aeruginosa KUB No. 5816, AR Bank # 511",0.0005 µg/mL
same,MIC,"P. aeruginosa; P. aeruginosa KUB No. 5817, AR Bank # 512",0.002 µg/mL
same,MIC,"P. aeruginosa; P. aeruginosa KUB No. 5818, AR Bank # 513",0.016 µg/mL
same,MIC,"P. aeruginosa; P. aeruginosa KUB No. 5819, AR Bank # 514",0.0005 µg/mL
same,MIC,"P. aeruginosa; P. aeruginosa KUB No. 5820, AR Bank # 515",0.064 µg/mL
same,MIC,"P. aeruginosa; P. aeruginosa KUB No. 5821, AR Bank # 516",> 0.064 µg/mL
same,MIC,"P. aeruginosa; P. aeruginosa KUB No. 5823, AR Bank # 518",> 0.064 µg/mL
same,MIC,"P. aeruginosa; P. aeruginosa KUB No. 5831, AR Bank # 526",0.008 µg/mL
same,MIC,"P. aeruginosa; P. aeruginosa KUB No. 5832, AR Bank # 527",0.008 µg/mL
same,MIC,"P. aeruginosa; P. aeruginosa KUB No. 5833, AR Bank # 528",0.032 µg/mL
same,MIC,"P. aeruginosa; P. aeruginosa KUB No. 5834, AR Bank # 529",0.008 µg/mL
same,MIC,"A. baumannii; Acinetobacter baumannii, A. baumannii KUB No. 5567, AR Bank #70, OXA-58, OXA-100",2 µg/mL
same,MIC,"A. baumannii; Acinetobacter baumannii, A. baumannii KUB No. 5575, AR Bank #78, OXA-71",> 64 µg/mL
same,MIC,"A. baumannii; Acinetobacter baumannii, A. baumannii KUB No. 5580, AR Bank #83, OXA-23, OXA-69, NDM-1",> 64 µg/mL
same,MIC,"A. baumannii; Acinetobacter baumannii, A. baumannii KUB No. 5585, AR Bank #88, OXA-64, NDM-1",> 64 µg/mL
same,MIC,"A. baumannii; Acinetobacter baumannii, A. baumannii KUB No. 5598, AR Bank #101, OXA-24, OXA-65",32 µg/mL
same,MIC,"A. baumannii; Acinetobacter baumannii, A. baumannii KUB No. 5599, AR Bank #102, OXA-66",8 µg/mL
same,MIC,"A. baumannii; Acinetobacter baumannii, A. baumannii KUB No. 5706, AR Bank #273, OXA-23, OXA-66",64 µg/mL
same,MIC,"A. baumannii; Acinetobacter baumannii, A. baumannii KUB No. 5707, AR Bank #274, OXA-66, OXA-72",16 µg/mL
same,MIC,"A. baumannii; Acinetobacter baumannii, A. baumannii KUB No. 5708, AR Bank #275, OXA-23, OXA-66",64 µg/mL
same,MIC,"A. baumannii; Acinetobacter baumannii, A. baumannii KUB No. 5709, AR Bank #276, no carbapenemase genes (-)",> 64 µg/mL
same,MIC,"A. baumannii; Acinetobacter baumannii, A. baumannii KUB No. 5710, AR Bank #277, OXA-24, OXA-65",64 µg/mL
same,MIC,"A. baumannii; Acinetobacter baumannii, A. baumannii KUB No. 5711, AR Bank #278, OXA-23, OXA-66",64 µg/mL
same,MIC,"A. baumannii; Acinetobacter baumannii, A. baumannii KUB No. 5712, AR Bank #279, OXA-23, OXA-66",64 µg/mL
same,MIC,"A. baumannii; Acinetobacter baumannii, A. baumannii KUB No. 5713, AR Bank #280, OXA-66",8 µg/mL
same,MIC,"A. baumannii; Acinetobacter baumannii, A. baumannii KUB No. 5714, AR Bank #281, OXA-82",8 µg/mL
same,MIC,"A. baumannii; Acinetobacter baumannii, A. baumannii KUB No. 5715, AR Bank #282, OXA-23, OXA-66",64 µg/mL
same,MIC,"A. baumannii; Acinetobacter baumannii, A. baumannii KUB No. 5716, AR Bank #283, OXA-23, OXA-66",32 µg/mL
same,MIC,"A. baumannii; Acinetobacter baumannii, A. baumannii KUB No. 5717, AR Bank #284, OXA-24, OXA-65",16 µg/mL
same,MIC,"A. baumannii; Acinetobacter baumannii, A. baumannii KUB No. 5718, AR Bank #285, OXA-24, OXA-65",32 µg/mL
same,MIC,"A. baumannii; Acinetobacter baumannii, KUB No. 5719, AR Bank #286",32 µg/mL
same,MIC,"A. baumannii; Acinetobacter baumannii, KUB No. 5720, AR Bank #287",32 µg/mL
same,MIC,"A. baumannii; Acinetobacter baumannii, KUB No. 5721, AR Bank #288",64 µg/mL
same,MIC,"A. baumannii; Acinetobacter baumannii, KUB No. 5722, AR Bank #259",8 µg/mL
same,MIC,"A. baumannii; Acinetobacter baumannii, KUB No. 5723, AR Bank #290",> 64 µg/mL
same,MIC,"A. baumannii; Acinetobacter baumannii, KUB No. 5724, AR Bank #291",32 µg/mL
same,MIC,"A. baumannii; Acinetobacter baumannii, KUB No. 5725, AR Bank #292",16 µg/mL
same,MIC,"A. baumannii; Acinetobacter baumannii, KUB No. 5726, AR Bank #293",16 µg/mL
same,MIC,"A. baumannii; Acinetobacter baumannii, KUB No. 5727, AR Bank #294",> 64 µg/mL
same,MIC,"A. baumannii; Acinetobacter baumannii, KUB No. 5728, AR Bank #295",64 µg/mL
same,MIC,"A. baumannii; Acinetobacter baumannii, KUB No. 5729, AR Bank #296",> 64 µg/mL
same,MIC,"A. baumannii; Acinetobacter baumannii, KUB No. 5730, AR Bank #297",64 µg/mL
same,MIC,"A. baumannii; Acinetobacter baumannii, KUB No. 5731, AR Bank #298",16 µg/mL
same,MIC,"A. baumannii; Acinetobacter baumannii, KUB No. 5732, AR Bank #299",> 64 µg/mL
same,MIC,"A. baumannii; Acinetobacter baumannii, KUB No. 5733, AR Bank #300",8 µg/mL
same,MIC,"A. baumannii; Acinetobacter baumannii, KUB No. 5734, AR Bank #301",> 64 µg/mL
same,MIC,"A. baumannii; Acinetobacter baumannii, KUB No. 5735, AR Bank #302",> 64 µg/mL
same,MIC,"A. baumannii; Acinetobacter baumannii, KUB No. 5736, AR Bank #303",32 µg/mL
same,MIC,"A. baumannii; Acinetobacter baumannii, KUB No. 5737, AR Bank #304",8 µg/mL
same,MIC,"A. baumannii; Acinetobacter baumannii, KUB No. 5738, AR Bank #305",16 µg/mL
same,MIC,"A. baumannii; Acinetobacter baumannii, KUB No. 5739, AR Bank #306",64 µg/mL
same,MIC,"A. baumannii; Acinetobacter baumannii, KUB No. 5740, AR Bank #307",16 µg/mL
same,MIC,"A. baumannii; Acinetobacter baumannii, KUB No. 5741, AR Bank #308",4 µg/mL
same,MIC,"A. baumannii; Acinetobacter baumannii, KUB No. 5742, AR Bank #309",64 µg/mL
same,MIC,"A. baumannii; Acinetobacter baumannii, KUB No. 5743, AR Bank #310",64 µg/mL
same,MIC,"A. baumannii; Acinetobacter baumannii, KUB No. 5744, AR Bank #311",> 64 µg/mL
same,MIC,"A. baumannii; Acinetobacter baumannii, KUB No. 5745, AR Bank #312",16 µg/mL
same,MIC,"A. baumannii; Acinetobacter baumannii, KUB No. 5746, AR Bank #313",64 µg/mL
same,MIC50,"A. baumannii; Acinetobacter baumannii, 55 isolates of A. baumannii, read-out: MIC50",64 µg/mL
same,MIC80,"A. baumannii; Acinetobacter baumannii, 55 isolates of A. baumannii, read-out: MIC80",> 64 µg/mL
same,MIC90,"A. baumannii; Acinetobacter baumannii, 55 isolates of A. baumannii, read-out: MIC90",> 64 µg/mL
same,Number of isolates at MIC >64 µg/mL,"A. baumannii; MIC distribution, metallo-β-lactamase-producing A. baumannii, inhibitor µg/mL in parentheses",4
